This note sets out measurements from patent publication US6872743B2, “sPLA2 inhibitors” (Eli Lilly and Company, priority 2000, dated 2005).

For this assay, the target named is T1, recombinant human secreted phospholipase A2 (Homo sapiens, UniProt P14555).
T1 sequence (P14555 21-144): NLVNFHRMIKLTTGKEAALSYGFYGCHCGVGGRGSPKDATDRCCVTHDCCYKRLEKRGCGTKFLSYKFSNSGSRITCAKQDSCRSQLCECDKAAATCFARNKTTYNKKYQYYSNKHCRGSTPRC
As to the kind of experiment: chromogenic assay for inhibitors of recombinant human secreted phospholipase A2. The settings on record: diheptanoyl thio-PC substrate, pH 7.5, 40° C. for 30 minutes, absorbance at 405 nanometers, titrated in triplicate. It counts as biochemical. The source says: The following chromogenic assay procedure was used to identify and evaluate inhibitors of recombinant human secreted phospholipase A2. The assay described herein has been adapted for high volume screening using 96 well microtiter plates. A general description of this assay method is found in the article, “Analysis of Human Synovial Fluid Phospholipase A2 on Short Chain Phosphatidylcholine-Mixed Micelles: Development of a Spectrophotometric Assay Suitable for a Microtiterplate Reader”, by Laure J. Reynolds, Lori L. Hughes, and Edward A Dennis, Analytical Biochemistry, 204, pp. 190-197, 1992 (the disclosure of which is incorporated herein by reference):
A measured volume of racemic dipheptanoyl thio PC supplied in chloroform at a concentration of 100 mg/ml is taken to dryness and redissolved in 10 millimolar TRITON X-100™ nonionic detergent aqueous solution. Reaction Buffer is added to the solution, then DTNB to give the Reaction Mixture.
The reaction mixture thus obtained contains 1 mM diheptanoly thio-PC substrate, 0.29 mm Triton X-100™ detergent, and 0.12 mm DTMB in a buffered aqueous solution at pH 7.5.
• 1. Add 0.2 ml reaction mixture to all wells; • 2. Add 10 ul test compound (or solvent blank) to appropriate wells, mix 20 seconds; • 3. Add 50 nanograms of sPLA2 (10 microliters) to appropriate wells; • 4. Incubate plate at 40° C. for 30 minutes; • 5. Read absorbance of wells at 405 nanometers with an automatic plate reader.
Tests were done in triplicate. Typically, compounds were tested at a final concentration of 5 ug/ml. […] Lack of color development at 405 nanometers evidenced inhibition. Compounds initially found to be active were re-assayed to confirm their activity and, if sufficiently active, IC50 values were determined. […] In all cases, % inhibition measured at 405 nanometers generated by enzyme reactions containing inhibitors relative to the uninhibited control reactions was determined. […] IC50 values were determined by plotting log concentration versus inhibition values in the range from 10-90% inhibition.
What is called IC50 is the concentration needed to halve the response being measured. For the compound `COC(=O)COc1cc2ccccc2c2c1c1c(C(N)=O)cccc1n2Cc1ccccc1` [Example 3, (11-Benzyl-7-carbamoyl-11H-benzo [a]carbazol-6-yloxy)acetic acid methyl ester], the IC50 amounted to 0.0094 µM.
For the compound `NC(=O)c1cccc2c1c1c(OCC(=O)O)cc3c(c1n2Cc1ccccc1)CCCC3` [Example 1, (11-Benzyl-7-carbamoyl-2,3,4,11-tetraydro-1H-benzo[a]carbazol-6-yloxy)acetic Acid], the IC50 worked out at 0.015 µM.
For the compound `NC(=O)c1cccc2c1c1c(OCC(=O)O)cc3c(c1n2Cc1ccccc1)CCC3` [Example 2, (10-Benzyl-6-carbamoyl-1,2,3,10-tetraydrocyclopenta[a]carbazol-5-yloxy)acetic Acid], the IC50 was found to be 0.012 µM.
